From patent US7445794B1, “Methods for treating human proliferative diseases, with a combination of fatty acid metabolism inhibitors and glycolytic inhibitors” (The Regents of the University of Colorado, priority 2004, dated 2008) come the findings set out here.

The experiment has as its system HL60 MDR tumor. Put plainly: Tumor volume of HL60 MDR tumor implanted in nude mice. The format is in vivo. The note with it: for effect on tumor growth (in words): over the 21 day period, versus control. An excerpt:
Mice were purchased from the Animal Production Program of National Cancer Institute, Frederick, Md. The animals used were Athymic Ncr-nu/nu (strain code 01B74). HL60 MDR cells were harvested and reconstituted at 1 million cells per 100 microliters of phosphate buffered saline. One million tumor cells per injection site were implanted subcutaneously on two sites of the animal's back. Treatments began at exactly seven days post tumor implantation. Tumor size/volume was monitored twice weekly using measurement calipers, with the formula Tumor Volume=π×(short diameter)^2×(long diameter)/6.
Treatment groups were: etomoxir at 200 micrograms/day; 2-deoxy-D-glucose at 2.5 mM in 100 microliters daily; and the combination daily of etomoxir at 200 micrograms and 2-deoxy-D-glucose at 2.5 mM in 100 microliters.
HL60 MDR human leukemia cells were cultured and implanted in nude mice as described above under “Materials and Methods”. The mice were given 200 ug of Etomoxir, 2.5 mM 2-Deoxy-D-glucose, or both 200 ug of Etomoxir and 2.5 mM 2-Deoxy-D-glucose given daily by IP injection. Treatment began exactly one week after tumor implantation.

`CCOC(=O)C1(CCCCCCOc2ccc(Cl)cc2)CO1` (stereo not drawn) [etomoxir, 2-(6-(4-chlorophenoxy)-hexyl)-oxirane-2-carboxylic acid ethyl ester]: the “effect on tumor growth (in words)” value is “increase in tumor growth”. In addition, the “tumor volume Day 7” value (Day 7 after implantation (start of daily IP treatment), etomoxir 200 ug, 2-deoxy-D-glucose 2.5 mM) is given as 36 mm^3.

In the case of `OC[C@H]1O[C@H](O)CC(O)[C@@H]1O` (stereo partly drawn) [2-deoxy-D-glucose], the “effect on tumor growth (in words)” value is “increase in tumor growth”.
